In ChEMBL document CHEMBL1130599, “Novel protein kinase C inhibitors: alpha-terthiophene derivatives” (Bioorg Med Chem Lett, 1998):

Assay: Inhibition of protein kinase C(1:1mixture of PKC alpha & beta) expressed in Sf9 insect cells
Format: cell-based

| SMILES | IC50 [µM] |
| --- | --- |
| O=Cc1ccc(-c2ccc(-c3ccc(CO)s3)s2)s1 | 0.7 |
| c1csc(-c2ccc(-c3cccs3)s2)c1 | 10 |
| O=Cc1ccc(-c2ccc(-c3cccs3)s2)s1 | 0.7 |
| O=Cc1cccs1 [2-THIOPHENENECARBOXALDEHYDE] | > 4000 |
| CN1CCN(CCCN2c3ccccc3Sc3ccc(C(F)(F)F)cc32)CC1 [TRIFLUOPERAZINE] | 500 |
| NCc1ccc(-c2ccc(-c3cccs3)s2)s1 | 7 |
| O=Cc1ccc(-c2cccs2)s1 | 700 |
| O=Cc1ccc(-c2ccc(-c3ccc(C=O)s3)s2)s1 | 0.3 |
| OCc1ccc(-c2ccc(-c3cccs3)s2)s1 | 4 |
| N#Cc1ccc(-c2ccc(-c3cccs3)s2)s1 | 2 |
